Test results reported in ChEMBL document CHEMBL5696442, “Discovery of type II inhibitors of TGFβ-activated kinase 1 (TAK1) and mitogen-activated protein kinase kinase kinase kinase 2 (MAP4K2)” (J Med Chem, 2015).
Activity calls are given as the source filed them. No cut-off for these calls is given here.

Experiments:
[1] = target: Mitogen-activated protein kinase 14 (Homo sapiens, UniProt Q16539); assay: Inhibition of p38 alpha Lys2 labeling site in human A-375 cells at 0.5 uM by KiNativ Profiling analysis relative to control; type: cell-based
[2] = target: Epidermal growth factor receptor (Homo sapiens) (UniProt P00533); assay: Inhibition of EGFR (unknown origin) at 1 uM by Ambit Kinomescan binding assay relative to control
[3] = target: T1, Phosphatidylinositol 5-phosphate 4-kinase type-2 gamma (Homo sapiens) (UniProt Q8TBX8); assay: Inhibition of PIP4K2C ATP labeling site harbouring VKELPTLKDMDFLNK in human A-375 cells at 5 uM by KiNativ Profiling analysis relative to control; type: cell-based
T1 sequence (whole entry): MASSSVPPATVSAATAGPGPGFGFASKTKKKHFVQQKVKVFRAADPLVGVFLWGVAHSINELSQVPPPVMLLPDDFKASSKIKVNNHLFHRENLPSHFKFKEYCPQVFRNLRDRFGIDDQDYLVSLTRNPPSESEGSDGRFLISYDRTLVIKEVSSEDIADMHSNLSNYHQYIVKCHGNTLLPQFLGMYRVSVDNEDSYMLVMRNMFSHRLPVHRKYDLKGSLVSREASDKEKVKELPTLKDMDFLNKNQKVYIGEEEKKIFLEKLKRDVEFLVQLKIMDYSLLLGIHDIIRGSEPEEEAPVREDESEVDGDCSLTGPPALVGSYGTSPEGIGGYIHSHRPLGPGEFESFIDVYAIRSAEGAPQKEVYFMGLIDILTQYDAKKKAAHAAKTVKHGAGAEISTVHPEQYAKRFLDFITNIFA

[4] = target: Activated CDC42 kinase 1 (Homo sapiens) (UniProt Q07912); assay: Inhibition of ACK Lys1 labeling site in human A-375 cells at 0.5 uM by KiNativ Profiling analysis relative to control; type: cell-based
[5] = target: Eukaryotic translation initiation factor 2-alpha kinase 1 (Homo sapiens) (UniProt Q9BQI3); assay: Inhibition of EIF2AK1 (unknown origin) at 1 uM by Ambit Kinomescan binding assay relative to control; values are per cent of control
[6] = system: Receptor-type tyrosine-protein kinase FLT3 (Homo sapiens), P36888 [N841I]; assay: Inhibition of FLT3 N841I mutant (unknown origin) at 1 uM by Ambit Kinomescan binding assay relative to control; values are per cent of control
[7] = system: Epidermal growth factor receptor (Homo sapiens), P00533 [UNDEFINED MUTATION]; assay: Inhibition of EGFR E746-A750del mutant (unknown origin) at 10 uM by Ambit Kinomescan binding assay relative to control
[8] = target: Myosin-IIIa (Homo sapiens) (UniProt Q8NEV4); assay: Inhibition of MYO3A (unknown origin) at 10 uM by Ambit Kinomescan binding assay relative to control
[9] = target: Ribosomal protein S6 kinase alpha-5 (Homo sapiens) (UniProt O75582); assay: Inhibition of C-terminal RPS6KA5 kinase domain 2 (unknown origin) at 10 uM by Ambit Kinomescan binding assay
[10] = target: T2, Mitogen-activated protein kinase kinase kinase 2 (Homo sapiens) (UniProt Q9Y2U5); assay: Inhibition of MAP3K2 Lys1 labeling site harbouring ELAVKQVQFDPDSPETSKEVNALECEIQLLK in human A-375 cells at 0.5 uM by KiNativ Profiling analysis relative to control; type: cell-based
T2 sequence (whole entry): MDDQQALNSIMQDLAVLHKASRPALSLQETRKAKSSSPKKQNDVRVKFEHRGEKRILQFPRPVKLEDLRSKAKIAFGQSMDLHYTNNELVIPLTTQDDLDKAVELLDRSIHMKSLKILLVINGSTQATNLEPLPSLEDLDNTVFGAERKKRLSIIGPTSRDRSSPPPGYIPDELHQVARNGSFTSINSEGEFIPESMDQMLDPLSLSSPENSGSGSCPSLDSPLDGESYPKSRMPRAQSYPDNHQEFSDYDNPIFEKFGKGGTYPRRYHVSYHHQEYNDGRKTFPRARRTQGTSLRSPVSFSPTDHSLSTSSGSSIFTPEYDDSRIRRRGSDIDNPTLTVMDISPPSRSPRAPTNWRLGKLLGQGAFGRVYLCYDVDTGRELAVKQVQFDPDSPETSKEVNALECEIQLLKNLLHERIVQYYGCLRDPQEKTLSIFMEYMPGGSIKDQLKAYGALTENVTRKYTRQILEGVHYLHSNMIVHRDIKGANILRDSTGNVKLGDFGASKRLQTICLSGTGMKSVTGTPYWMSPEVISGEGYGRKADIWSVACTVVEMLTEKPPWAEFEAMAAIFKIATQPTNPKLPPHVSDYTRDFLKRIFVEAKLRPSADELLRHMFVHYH

[11] = target: T3, Inhibitor of nuclear factor kappa-B kinase subunit beta (Homo sapiens) (UniProt O14920); assay: Inhibition of IKKb Lys2 labeling site in human Huh-7 cell lysate at 1 uM by KiNativ Profiling analysis relative to control; type: subcellular
T3 sequence (whole entry): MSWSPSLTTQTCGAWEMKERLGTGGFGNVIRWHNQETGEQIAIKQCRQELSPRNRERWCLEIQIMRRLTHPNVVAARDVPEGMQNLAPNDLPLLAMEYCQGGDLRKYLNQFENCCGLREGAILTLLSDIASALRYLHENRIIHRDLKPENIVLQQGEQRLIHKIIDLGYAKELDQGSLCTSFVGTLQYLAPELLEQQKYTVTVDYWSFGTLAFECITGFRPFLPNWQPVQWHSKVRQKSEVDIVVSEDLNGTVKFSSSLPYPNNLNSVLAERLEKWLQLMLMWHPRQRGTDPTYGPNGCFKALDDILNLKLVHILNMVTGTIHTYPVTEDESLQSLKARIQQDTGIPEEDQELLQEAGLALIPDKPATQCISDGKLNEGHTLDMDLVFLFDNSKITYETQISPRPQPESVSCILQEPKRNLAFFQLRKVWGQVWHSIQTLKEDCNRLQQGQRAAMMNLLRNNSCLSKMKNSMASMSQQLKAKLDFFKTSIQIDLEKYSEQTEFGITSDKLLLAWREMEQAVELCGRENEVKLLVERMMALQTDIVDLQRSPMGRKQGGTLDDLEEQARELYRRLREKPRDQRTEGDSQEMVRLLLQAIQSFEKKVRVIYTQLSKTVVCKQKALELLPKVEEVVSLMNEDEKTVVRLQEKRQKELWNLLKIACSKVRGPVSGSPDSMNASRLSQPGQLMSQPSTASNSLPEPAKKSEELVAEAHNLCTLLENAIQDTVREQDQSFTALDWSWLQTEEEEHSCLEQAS

[12] = target: Putative phosphatidylinositol 4-kinase alpha-like protein P2 (Homo sapiens) (UniProt A4QPH2); assay: Inhibition of PI4KAP2 ATP labeling site in human Huh-7 cell lysate at 1 uM by KiNativ Profiling analysis relative to control; type: subcellular
[13] = target: Ribosomal protein S6 kinase alpha-5 (Homo sapiens) (UniProt O75582); assay: Inhibition of MSK1 domain1 ATP Loop labeling site in human Huh-7 cells at 1 uM by KiNativ Profiling analysis relative to control; type: cell-based

Sequence of Ribosomal protein S6 kinase alpha-5 (Homo sapiens) (O75582 whole entry, looked up, the tested form may be a part): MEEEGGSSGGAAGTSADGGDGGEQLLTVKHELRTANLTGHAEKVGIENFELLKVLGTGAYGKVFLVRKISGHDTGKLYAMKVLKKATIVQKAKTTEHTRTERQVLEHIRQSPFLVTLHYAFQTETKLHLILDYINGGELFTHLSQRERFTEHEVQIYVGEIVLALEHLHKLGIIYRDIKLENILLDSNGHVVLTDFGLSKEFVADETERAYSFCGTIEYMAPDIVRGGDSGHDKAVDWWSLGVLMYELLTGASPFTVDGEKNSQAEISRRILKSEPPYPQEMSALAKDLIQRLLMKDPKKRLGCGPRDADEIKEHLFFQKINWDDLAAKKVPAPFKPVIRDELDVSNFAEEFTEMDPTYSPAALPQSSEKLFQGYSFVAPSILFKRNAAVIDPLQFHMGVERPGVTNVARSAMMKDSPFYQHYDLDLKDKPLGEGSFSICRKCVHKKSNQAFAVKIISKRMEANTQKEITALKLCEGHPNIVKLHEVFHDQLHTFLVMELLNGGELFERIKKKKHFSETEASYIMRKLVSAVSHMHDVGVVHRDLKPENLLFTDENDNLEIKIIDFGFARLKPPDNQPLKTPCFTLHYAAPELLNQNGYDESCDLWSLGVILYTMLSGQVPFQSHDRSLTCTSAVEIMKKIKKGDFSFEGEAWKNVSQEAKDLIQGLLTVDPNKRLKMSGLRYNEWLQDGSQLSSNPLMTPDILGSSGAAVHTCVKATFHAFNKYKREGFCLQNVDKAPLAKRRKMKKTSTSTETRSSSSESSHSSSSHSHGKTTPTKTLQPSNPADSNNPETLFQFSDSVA
Sequence of Mitogen-activated protein kinase 14 (Q16539 whole entry): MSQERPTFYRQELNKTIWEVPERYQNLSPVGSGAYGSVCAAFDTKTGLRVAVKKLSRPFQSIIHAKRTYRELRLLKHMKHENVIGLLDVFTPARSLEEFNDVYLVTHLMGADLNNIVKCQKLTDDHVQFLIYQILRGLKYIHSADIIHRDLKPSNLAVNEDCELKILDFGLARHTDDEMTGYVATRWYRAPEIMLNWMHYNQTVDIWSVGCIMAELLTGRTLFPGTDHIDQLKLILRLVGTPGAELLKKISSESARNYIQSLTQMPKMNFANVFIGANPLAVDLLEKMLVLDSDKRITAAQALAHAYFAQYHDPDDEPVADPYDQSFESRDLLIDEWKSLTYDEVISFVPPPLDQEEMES
Sequence of Eukaryotic translation initiation factor 2-alpha kinase 1 (Homo sapiens) (Q9BQI3 whole entry): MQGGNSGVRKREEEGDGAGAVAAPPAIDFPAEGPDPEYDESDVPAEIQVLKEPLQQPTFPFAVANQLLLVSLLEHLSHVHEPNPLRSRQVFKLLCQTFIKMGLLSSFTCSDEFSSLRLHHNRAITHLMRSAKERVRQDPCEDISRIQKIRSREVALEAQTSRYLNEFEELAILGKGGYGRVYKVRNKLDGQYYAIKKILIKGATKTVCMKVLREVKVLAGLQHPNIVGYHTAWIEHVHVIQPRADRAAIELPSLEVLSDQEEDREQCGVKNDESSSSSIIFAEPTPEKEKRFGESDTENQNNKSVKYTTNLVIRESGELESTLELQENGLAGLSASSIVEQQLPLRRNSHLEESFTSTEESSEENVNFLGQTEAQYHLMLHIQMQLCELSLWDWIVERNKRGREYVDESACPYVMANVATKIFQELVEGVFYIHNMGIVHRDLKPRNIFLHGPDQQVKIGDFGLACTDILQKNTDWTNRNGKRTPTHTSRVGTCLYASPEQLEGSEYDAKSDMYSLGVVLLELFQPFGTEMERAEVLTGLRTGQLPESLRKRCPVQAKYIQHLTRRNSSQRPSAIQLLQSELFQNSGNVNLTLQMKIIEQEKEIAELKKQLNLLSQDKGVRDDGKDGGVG
Sequence of Putative phosphatidylinositol 4-kinase alpha-like protein P2 (Homo sapiens) (A4QPH2 whole entry, the tested form may be a part): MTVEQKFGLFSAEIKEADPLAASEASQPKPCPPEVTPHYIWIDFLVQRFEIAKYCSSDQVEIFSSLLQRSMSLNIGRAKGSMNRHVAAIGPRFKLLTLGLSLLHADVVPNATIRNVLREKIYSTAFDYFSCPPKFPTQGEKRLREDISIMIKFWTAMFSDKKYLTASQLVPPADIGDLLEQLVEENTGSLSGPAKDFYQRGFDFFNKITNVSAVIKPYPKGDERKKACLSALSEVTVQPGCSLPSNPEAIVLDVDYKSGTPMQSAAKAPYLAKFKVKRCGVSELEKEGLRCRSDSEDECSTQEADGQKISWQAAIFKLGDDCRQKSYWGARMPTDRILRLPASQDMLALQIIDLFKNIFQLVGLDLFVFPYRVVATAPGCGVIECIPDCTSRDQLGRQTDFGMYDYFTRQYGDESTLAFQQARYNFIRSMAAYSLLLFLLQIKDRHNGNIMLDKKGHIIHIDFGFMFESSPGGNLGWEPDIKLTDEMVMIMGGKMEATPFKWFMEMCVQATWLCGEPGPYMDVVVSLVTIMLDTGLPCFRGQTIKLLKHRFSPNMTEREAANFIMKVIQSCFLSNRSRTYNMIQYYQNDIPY
Sequence of Myosin-IIIa (Homo sapiens) (Q8NEV4 whole entry, the tested form may be a part): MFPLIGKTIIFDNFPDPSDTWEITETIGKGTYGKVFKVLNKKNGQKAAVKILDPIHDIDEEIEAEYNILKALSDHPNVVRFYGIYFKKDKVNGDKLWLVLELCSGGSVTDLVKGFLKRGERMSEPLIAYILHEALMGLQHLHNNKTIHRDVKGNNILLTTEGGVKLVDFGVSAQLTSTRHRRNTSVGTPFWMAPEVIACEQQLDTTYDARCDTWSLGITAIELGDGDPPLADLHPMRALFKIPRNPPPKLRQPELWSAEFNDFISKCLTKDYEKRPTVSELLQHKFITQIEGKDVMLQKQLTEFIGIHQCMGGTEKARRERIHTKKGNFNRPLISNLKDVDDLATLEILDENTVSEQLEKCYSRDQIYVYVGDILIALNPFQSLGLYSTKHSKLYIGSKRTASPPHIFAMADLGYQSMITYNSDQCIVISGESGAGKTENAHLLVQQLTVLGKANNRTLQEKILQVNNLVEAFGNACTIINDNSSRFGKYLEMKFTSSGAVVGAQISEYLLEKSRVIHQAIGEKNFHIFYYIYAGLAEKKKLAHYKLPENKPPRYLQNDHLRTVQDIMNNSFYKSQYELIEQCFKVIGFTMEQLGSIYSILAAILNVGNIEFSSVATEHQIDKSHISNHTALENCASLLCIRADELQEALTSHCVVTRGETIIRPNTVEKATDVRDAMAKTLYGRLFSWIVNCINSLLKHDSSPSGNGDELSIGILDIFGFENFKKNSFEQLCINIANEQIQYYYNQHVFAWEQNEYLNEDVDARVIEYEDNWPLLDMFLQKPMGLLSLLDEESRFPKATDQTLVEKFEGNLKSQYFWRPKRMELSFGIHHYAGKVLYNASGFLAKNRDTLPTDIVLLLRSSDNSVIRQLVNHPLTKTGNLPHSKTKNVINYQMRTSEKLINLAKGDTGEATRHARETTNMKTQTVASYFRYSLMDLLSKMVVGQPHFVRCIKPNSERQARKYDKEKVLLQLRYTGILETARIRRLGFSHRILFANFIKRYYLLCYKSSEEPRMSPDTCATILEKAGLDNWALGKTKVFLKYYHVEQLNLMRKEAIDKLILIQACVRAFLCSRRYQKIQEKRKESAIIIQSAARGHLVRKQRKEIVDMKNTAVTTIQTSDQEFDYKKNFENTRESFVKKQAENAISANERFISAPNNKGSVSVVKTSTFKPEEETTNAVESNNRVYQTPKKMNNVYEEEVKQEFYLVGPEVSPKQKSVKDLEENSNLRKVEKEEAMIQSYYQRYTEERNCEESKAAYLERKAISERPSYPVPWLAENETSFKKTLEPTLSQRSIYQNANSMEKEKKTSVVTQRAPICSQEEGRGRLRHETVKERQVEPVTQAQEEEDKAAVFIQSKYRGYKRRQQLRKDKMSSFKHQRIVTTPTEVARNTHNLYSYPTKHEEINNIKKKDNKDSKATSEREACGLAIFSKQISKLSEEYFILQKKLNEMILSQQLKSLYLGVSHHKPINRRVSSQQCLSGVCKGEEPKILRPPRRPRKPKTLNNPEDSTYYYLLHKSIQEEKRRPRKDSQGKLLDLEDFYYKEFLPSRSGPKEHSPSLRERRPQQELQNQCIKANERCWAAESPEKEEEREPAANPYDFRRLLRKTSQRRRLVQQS
Sequence of Activated CDC42 kinase 1 (Homo sapiens) (Q07912 whole entry, looked up): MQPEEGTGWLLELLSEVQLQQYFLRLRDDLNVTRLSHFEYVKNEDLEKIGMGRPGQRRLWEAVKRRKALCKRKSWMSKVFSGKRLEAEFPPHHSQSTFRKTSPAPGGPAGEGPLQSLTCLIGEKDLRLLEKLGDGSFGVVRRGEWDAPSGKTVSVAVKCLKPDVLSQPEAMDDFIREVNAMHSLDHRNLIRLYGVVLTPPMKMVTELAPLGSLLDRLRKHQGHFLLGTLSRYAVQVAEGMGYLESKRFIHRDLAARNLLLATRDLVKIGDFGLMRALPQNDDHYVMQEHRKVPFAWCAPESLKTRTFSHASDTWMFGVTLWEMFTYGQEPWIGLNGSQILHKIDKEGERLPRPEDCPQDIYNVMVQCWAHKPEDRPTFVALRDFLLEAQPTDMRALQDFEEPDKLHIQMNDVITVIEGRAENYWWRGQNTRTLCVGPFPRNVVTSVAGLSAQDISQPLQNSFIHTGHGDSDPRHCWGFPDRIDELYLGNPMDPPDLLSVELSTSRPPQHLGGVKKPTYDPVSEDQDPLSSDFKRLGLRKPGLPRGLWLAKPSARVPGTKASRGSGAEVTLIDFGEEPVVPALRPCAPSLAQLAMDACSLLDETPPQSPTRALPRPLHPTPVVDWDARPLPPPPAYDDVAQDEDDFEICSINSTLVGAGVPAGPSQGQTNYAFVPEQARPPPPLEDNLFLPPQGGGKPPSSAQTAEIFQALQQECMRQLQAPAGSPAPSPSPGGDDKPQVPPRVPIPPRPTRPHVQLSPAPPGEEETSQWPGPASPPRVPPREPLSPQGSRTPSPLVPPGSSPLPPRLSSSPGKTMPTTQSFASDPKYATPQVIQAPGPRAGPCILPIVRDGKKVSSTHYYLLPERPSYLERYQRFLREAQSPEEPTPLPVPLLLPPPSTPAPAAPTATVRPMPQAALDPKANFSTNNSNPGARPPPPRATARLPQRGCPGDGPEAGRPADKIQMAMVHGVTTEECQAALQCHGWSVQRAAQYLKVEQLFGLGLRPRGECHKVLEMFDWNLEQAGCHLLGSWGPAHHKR

## CCN1CCN(Cc2ccc(NC(=O)c3ccc(C)c(/C=C/c4cnc5[nH]ccc5c4OC)c3)cc2C(F)(F)F)CC1
[1]
  inhibition: 59.5%
[2]
  inhibition: 7.6%
[3]
  inhibition: 8.5%
[4]
  inhibition: 35.2%
[5]
  residual activity: 100%
[6]
  residual activity: 2.3%

## CCN1CCN(Cc2ccc(NC(=O)c3ccc(C)c(Oc4ccnc5[nH]ccc45)c3)cc2C(F)(F)F)CC1
[7]
  inhibition: 8.4%
[8]
  inhibition: 6.4%
[9]
  inhibition: inactive
[10]
  inhibition: 16.9%

## CNc1cc(Oc2cc(C(=O)Nc3cc(N4CCN(C)CC4)cc(C(F)(F)F)c3)ccc2C)ncn1
[11]
  inhibition: -5.1%
[12]
  inhibition: 2%
[13]
  inhibition: 11.5%
